Laboratory results as given in patent US8815857B2 (Boehringer Ingelheim International GmbH, priority 2011, dated 2014).
In brackets after ≈: the same amount, converted by molar mass.

Columns and labels:
[1] = biological target: T1, Recombinant human soluble guanylate cyclase (sGC), alpha 1 / beta 1 subunits, heme-free (Homo sapiens, UniProt Q02108+Q02153); assay: Molecular assay: cGMP formation by heme-free recombinant sGC (CisBio cGMP detection kit); assay type: biochemical; conditions: 300 pM heme-free sGC, 37° C., 60 min, cGMP readout; read-out: EC50 nM, Activity of Compounds in Molecular Assay
T1 construct: histidine tag (C); made in house; host or cells: Sf9 insect cells (baculovirus coinfection)
T1 sequence (Q02108 1-690 partner): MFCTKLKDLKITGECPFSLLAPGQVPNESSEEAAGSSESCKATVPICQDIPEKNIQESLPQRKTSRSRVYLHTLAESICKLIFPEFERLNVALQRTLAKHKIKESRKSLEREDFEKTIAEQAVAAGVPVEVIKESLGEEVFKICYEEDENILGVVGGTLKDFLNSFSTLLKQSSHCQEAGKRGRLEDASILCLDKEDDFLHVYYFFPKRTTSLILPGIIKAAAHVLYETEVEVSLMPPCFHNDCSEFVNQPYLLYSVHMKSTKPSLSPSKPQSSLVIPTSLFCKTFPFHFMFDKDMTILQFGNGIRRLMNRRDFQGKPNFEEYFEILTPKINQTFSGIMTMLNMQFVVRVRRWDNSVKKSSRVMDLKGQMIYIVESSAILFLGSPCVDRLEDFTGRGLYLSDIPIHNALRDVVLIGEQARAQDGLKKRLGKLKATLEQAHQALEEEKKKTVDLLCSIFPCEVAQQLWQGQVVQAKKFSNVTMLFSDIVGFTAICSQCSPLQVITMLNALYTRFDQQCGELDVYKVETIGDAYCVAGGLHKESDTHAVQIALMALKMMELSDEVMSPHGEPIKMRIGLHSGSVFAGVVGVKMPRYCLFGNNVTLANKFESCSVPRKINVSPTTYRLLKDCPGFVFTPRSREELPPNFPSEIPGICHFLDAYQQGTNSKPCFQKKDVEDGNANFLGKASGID
T1 sequence (Q02153 1-619): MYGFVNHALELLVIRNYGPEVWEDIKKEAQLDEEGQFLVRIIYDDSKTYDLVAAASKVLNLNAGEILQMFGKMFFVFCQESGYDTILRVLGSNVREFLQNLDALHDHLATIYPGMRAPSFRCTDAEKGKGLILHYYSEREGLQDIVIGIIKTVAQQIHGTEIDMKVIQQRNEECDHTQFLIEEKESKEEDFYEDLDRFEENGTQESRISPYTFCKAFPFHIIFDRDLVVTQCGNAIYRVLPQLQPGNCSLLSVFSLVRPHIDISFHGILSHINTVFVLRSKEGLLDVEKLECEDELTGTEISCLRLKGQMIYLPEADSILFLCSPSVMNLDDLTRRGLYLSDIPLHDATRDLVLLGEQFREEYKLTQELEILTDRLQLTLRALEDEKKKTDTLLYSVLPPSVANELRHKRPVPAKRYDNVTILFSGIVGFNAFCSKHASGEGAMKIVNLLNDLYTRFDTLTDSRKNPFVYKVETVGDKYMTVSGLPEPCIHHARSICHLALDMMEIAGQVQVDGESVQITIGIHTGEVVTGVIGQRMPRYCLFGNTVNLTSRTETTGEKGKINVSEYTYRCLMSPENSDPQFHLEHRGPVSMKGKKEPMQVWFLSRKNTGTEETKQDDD
Outline: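 Heme-free His-tagged sGC (Sf9-expressed, Tween 20-treated lysate) at 300 pM incubated with compounds (1% DMSO) for 60 min at 37° C in MOPS pH 6.8 with 50 nM GTP, IBMX, TCEP. cGMP quantified by HTRF against calibration curve; EC50 from combined undiluted/diluted values.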

[2] = Assessment of solubility: HT solubility in pION buffer, UV spectrophotometry; conditions: 16-19 h incubation, 1.0% DMSO; for solubility: pION system solution buffer, kinetic from dmso stock
[3] = pH 4.5, pH 4.5, aqueous buffer, Solubility (pH 4.5), pH 4.5 buffer
[4] = pH 7.4, pH 7.4, aqueous buffer, Solubility (pH 7.4), pH 7.4 buffer

Structure (SMILES) | EC50 [1] [nM] | solubility [2, 3] [µg/mL] | solubility [2, 4] [µg/mL] | Solubility (pH 4.5) ([2]; pH 4.5 buffer) [μg/mL]
COCCN(C)Cc1ccc(COc2ccc(C#N)cc2-c2csc(N3CCC(C(=O)O)CC3)n2)c(C)c1 [Compound 171] | 2400 | 34 (≈ 63.6 µM) | 36 (≈ 67.3 µM) | 
Cc1cc(C(=O)N2CCCCC2)ccc1COc1ccc(F)cc1-c1csc(C2=CCC(C(=O)O)CC2)n1 (stereo not drawn) [Compound 48] | 360 |  | 27 (≈ 50.5 µM) | 0.1
Cc1cc(C(=O)N2CCCCC2)ccc1COc1c(C#N)cccc1-c1csc(N2CCC(C(=O)O)CC2)n1 [Compound 66] | 450 | 1 (≈ 1.84 µM) | > 54 | 
Cc1ccc(OCc2ccc(CN3CCOCC3)cc2C)c(-c2csc(N3CC[C@@H](C(=O)O)C3)n2)c1 (single isomer, unassigned) [Compound 5, R-1-{4-[5-methyl-2-(2-methyl-4-morpholin-4-ylmethyl-benzyloxy)-phenyl]-thiazol-2-yl}-pyrrolidine-3-carboxylic acid] | 2000 | 37 (≈ 72.9 µM) | 40 (≈ 78.8 µM) | 
Cc1cc(CN2CCC(C(=O)N(C)C)CC2)ccc1COc1c(C)cccc1-c1csc(N2CCC(C(=O)O)CC2)n1 [Compound 134] | 1800 | > 68 | > 68 | 
Cc1ccc(OCc2ccc(CN3CCOCC3)cc2C)c(-c2csc(N3CCC(CC(=O)O)C3)n2)c1 (stereo not drawn) [Compound 23] | 3200 | > 56 | > 56 | 
CNC(=O)C1CCN(Cc2ccc(COc3c(C)cccc3-c3csc(N4CCC(C(=O)O)CC4)n3)c(C)c2)CC1 [Compound 115] | 2700 | > 57 | > 57 | 
Cc1cc(C(=O)N2CCCCC2)ccc1COc1ccc(Cl)cc1-c1csc(N2C3CCC2CC(C(=O)O)C3)n1 (stereo not drawn) [Compound 117] | 30 | 0.25 (≈ 0.431 µM) | > 57 | 
Cc1cc(CN2CCS(=O)(=O)CC2)ccc1COc1ccc(F)cc1-c1csc(N2CCC(C(=O)O)CC2C)n1 (stereo not drawn) [Compound 131] | 88 | 0.15 (≈ 0.255 µM) | > 58 | 
Cc1cc(CN2CCOCC2)ccc1COc1ccc(C#N)cc1-c1csc(N2CC3CCC(C2)C3C(=O)O)n1 (stereo not drawn) [Compound 86] | 7100 | 3.5 (≈ 6.26 µM) | 5.7 (≈ 10.2 µM) | 
Cc1cc(C(=O)N2CCCCC2)ccc1COc1ccc(Cl)cc1-c1csc(N2CC3CCC(C2)C3C(=O)O)n1 (stereo not drawn) [Compound 118] | 85 | 0.3 (≈ 0.517 µM) | 21 (≈ 36.2 µM) | 
Cc1cc(CN2CCS(=O)(=O)CC2)ccc1COc1ccc(F)cc1-c1csc(N2CC3C(C2)C3C(=O)O)n1 (stereo not drawn) [Compound 110] | 1200 | 0.35 (≈ 0.612 µM) | > 57 | 
Cc1ccc(OCc2ccc(CN(C)CC3CCOCC3)cc2C)c(-c2csc(N3CCC(C(=O)O)CC3)n2)c1 [Compound 96] | 550 | > 67 | > 67 | 
Cc1cc(CN2CCOCC2)ccc1COc1ccccc1-c1csc(N2C3CCC2CC(C(=O)O)C3)n1 (stereo not drawn) [Compound 44] | 760 | > 60 | > 60 | 
Cc1cc(CN2CCS(=O)(=O)CC2)ccc1COc1ccccc1-c1csc(N2CCC(C(=O)O)CC2C(F)(F)F)n1 (stereo not drawn) [Compound 152] | 170 | 0.3 (≈ 0.481 µM) | > 62 | 
COCCN(C)Cc1ccc(COc2ccc(C)cc2-c2csc(N3CC[C@@H](C(=O)O)[C@@H](C)C3)n2)c(C#N)c1 [Compound 75] | 600 | > 66 | > 66 | 
Cc1ccc(OCc2ccc(CN3CCS(=O)(=O)CC3)cc2C)c(-c2csc(N3CCC(C(=O)O)C(C(F)(F)F)C3)n2)c1 (stereo not drawn) [Compound 154] | 530 | 0.8 (≈ 1.25 µM) | > 63 | 
Cc1cc(C(=O)N2CCCCC2)ccc1COc1ccc(Cl)cc1-c1csc(N2CCC(C(=O)O)CC2C)n1 (stereo not drawn) [Compound 102] | 30 | 0.25 (≈ 0.44 µM) | 26 (≈ 45.8 µM) | 

Structure (SMILES) | EC50 [1] [nM] | solubility [2, 3] [µg/mL] | solubility [2, 4] [µg/mL] | Solubility (pH 4.5) ([2]; pH 4.5 buffer) [μg/mL]
Cc1cc(C(=O)N2CCCCC2)ccc1COc1ccccc1-c1csc(C2=CCC(C(=O)O)CC2)n1 (stereo not drawn) [Compound 8] | 330 | 0.15 (≈ 0.29 µM) | > 51 | 
Cc1ccc(OCc2ccc(CN3CCCCC3)cc2C#N)c(-c2csc(N3CCC(C(=O)O)CC3)n2)c1 [Compound 29] | 440 | > 64 | 5.2 (≈ 9.8 µM) | 
Cc1ccc(OCc2ccc(C(=O)N3CCCCC3)cc2C)c(-c2csc(N3CCC(C(=O)O)C(C)C3)n2)c1 (stereo not drawn) [Compound 71] | 12000 | 42 (≈ 76.7 µM) | > 62 | 
Cc1ccc(OCc2ccc(CN3CCOCC3)cc2C#N)c(-c2csc(N3CCC(C(=O)O)CC3)n2)c1 [Compound 167] | 52 | 41 (≈ 77 µM) | > 64 | 
Cc1ccc(OCc2ccc(CN3CCOCC3)cc2C)c(-c2csc(N3CCC(C(=O)O)CC3C(F)(F)F)n2)c1 (stereo not drawn) [Compound 132] | 160 | 15 (≈ 25.4 µM) | > 58 | 
Cc1cc(C(=O)N2CCCCC2)ccc1COc1ccc(F)cc1-c1csc(N2CC3CCC(C2)C3C(=O)O)n1 (stereo not drawn) [Compound 98] | 780 | 0.2 (≈ 0.355 µM) | > 56 | 
Cc1cc(CN2CCS(=O)(=O)CC2)ccc1COc1ccc(C#N)cc1-c1csc(N2CC3CCC(C2)C3C(=O)O)n1 (stereo not drawn) [Compound 146] | 2000 | 0.75 (≈ 1.24 µM) | > 60 | 
Cc1cc(C(=O)N2CCCCC2)ccc1COc1ccccc1-c1csc([C@H]2CC[C@@H](C(=O)O)CC2)n1 [Compound 11] | 2300 |  | > 51 | 0.1
Cc1cc(CN2CCS(=O)(=O)CC2)ccc1COc1ccc(Cl)cc1-c1csc(N2CCC(C(=O)O)CC2C)n1 (stereo not drawn) [Compound 143] | 38 | 0.2 (≈ 0.331 µM) | 36 (≈ 59.6 µM) | 
Cc1cc(C(=O)N2CCCCC2)ccc1COc1ccc(C#N)cc1-c1csc(N2C3CCC2CC(C(=O)O)C3)n1 (stereo not drawn) [Compound 109] | 1500 | 0.65 (≈ 1.14 µM) | > 56 | 
COCCN(C)Cc1ccc(COc2ccc(C)cc2-c2csc(N3CCC(C(=O)O)CC3)n2)c(C#N)c1 [Compound 46] | 260 | > 64 | > 64 | 
Cc1cc(CN2CCOCC2)ccc1COc1ccc(F)cc1-c1csc(N2CCC(C(=O)O)CC2)n1 [Compound 28] | 200 | > 52 | > 52 | 
Cc1cc(C(=O)N2CCCCC2)ccc1COc1ccccc1-c1csc(N2CCC(C(=O)O)CC2)n1 [Compound 17] | 79 | 0.7 (≈ 1.35 µM) | > 51 | 
Cc1cc(CN2CCOCC2)ccc1COc1ccccc1-c1csc(N2CC3CCC(C2)C3C(=O)O)n1 (stereo not drawn) [Compound 43] | 63 | > 60 | > 60 | 
Cc1cc(CN2CCS(=O)(=O)CC2)ccc1COc1ccc(F)cc1-c1csc(N2CCC(C(=O)O)C(C)C2)n1 (stereo not drawn) [Compound 129] | 89 | 0.15 (≈ 0.255 µM) | > 58 | 
Cc1ccc(OCc2ccc(C(=O)N3CCCCC3)cc2C)c(-c2csc(N[C@H]3CC[C@@H](C(=O)O)C3)n2)c1 [Compound 40, (1R,3S)-3-[[4-[5-methyl-2-[[2-methyl-4-(piperidine-1-carbonyl)phenyl]methoxy]phenyl]thiazol-2-yl]amino]cyclopentanecarboxylic acid] | 2600 | 2.3 (≈ 4.31 µM) | > 53 | 
Cc1cc(C(=O)N2CCCCC2)ccc1COc1ccccc1-c1csc(N2CCC(C(=O)O)CC2C)n1 (stereo not drawn) [Compound 41] | 70 | 1.1 (≈ 2.06 µM) | > 53 | 
